{"source": "paper PMC5218480", "about": "(PLoS ONE, 2017)", "tested_on": "MV-4-11 cells", "assay": "Gene expression microarray analysis (Affymetrix PrimeView) and GSEA", "format": "cell-based, human", "design": "RFU PODN (11730768_x_at) / Fold change /veh PODN (11730768_x_at) / RFU LINC00158 (11744669_a_at) / Fold change /veh LINC00158 (11744669_a_at) / RFU DUSP10 (11751237_a_at) / Fold change /veh DUSP10 (11751237_a_at) / RFU ID3 (11757404_x_at) / Fold change /veh ID3 (11757404_x_at) / RFU PLEKHG5 (11737974_s_at) / Fold change /veh PLEKHG5 (11737974_s_at) / RFU LRRC4B (11730491_at) / Fold change /veh LRRC4B (11730491_at) / RFU GIMAP4 (11747438_a_at) / Fold change /veh GIMAP4 (11747438_a_at) / RFU KRT8 (11758183_x_at) / Fold change /veh KRT8 (11758183_x_at) / RFU CNN1 (11734310_a_at) / Fold change /veh CNN1 (11734310_a_at) / RFU VPS37D (11726825_at) / Fold change /veh VPS37D (11726825_at) / RFU C10orf10 (11716522_x_at) / Fold change /veh C10orf10 (11716522_x_at) / RFU KIR2DL2 /// KIR2DL4 /// KIR2DL5A /// KIR2DL5B /// KIR2DS1 /// KIR2DS2 /// KIR2DS3 /// KIR2DS4 /// KIR3DL3 /// KIR3DL3 /// KIR3DS1 (11738374_at) / Fold change /veh KIR2DL2 /// KIR2DL4 /// KIR2DL5A /// KIR2DL5B /// KIR2DS1 /// KIR2DS2 /// KIR2DS3 /// KIR2DS4 /// KIR3DL3 /// KIR3DL3 /// KIR3DS1 (11738374_at) / RFU C1QL1 (11718748_at) / Fold change /veh C1QL1 (11718748_at) / RFU TMPRSS4 (11747572_a_at) / Fold change /veh TMPRSS4 (11747572_a_at) / RFU HAMP (11756126_x_at) / Fold change /veh HAMP (11756126_x_at) / RFU RNFT2 (11725882_a_at) / Fold change /veh RNFT2 (11725882_a_at) / RFU NR4A2 (11747474_a_at) / Fold change /veh NR4A2 (11747474_a_at) / RFU ABCC12 (11746883_a_at) / Fold change /veh ABCC12 (11746883_a_at) / RFU TMEM136 (11760407_x_at) / Fold change /veh TMEM136 (11760407_x_at) / RFU CLDN22 /// WWC2 (11732394_at) / Fold change /veh CLDN22 /// WWC2 (11732394_at) / RFU HLA-DPB1 (11760878_x_at) / Fold change /veh HLA-DPB1 (11760878_x_at) / RFU SPINT1 (11716480_a_at) / Fold change /veh SPINT1 (11716480_a_at) / RFU GAP43 (11754022_s_at) / Fold change /veh GAP43 (11754022_s_at) / RFU A4GNT (11735810_at) / Fold change /veh A4GNT (11735810_at) / RFU PRB3 (11715151_x_at) / Fold change /veh PRB3 (11715151_x_at) / RFU TUBB4B (11761932_at) / Fold change /veh TUBB4B (11761932_at) / RFU CAPN14 (11732068_a_at) / Fold change /veh CAPN14 (11732068_a_at) / RFU TMCC2 (11721928_a_at) / Fold change /veh TMCC2 (11721928_a_at) / RFU IRGQ (11745062_a_at) / Fold change /veh IRGQ (11745062_a_at) / RFU FAM174B (11720279_a_at) / Fold change /veh FAM174B (11720279_a_at) / RFU TMPRSS4 (11748680_a_at) / Fold change /veh TMPRSS4 (11748680_a_at) / RFU FAM212B (11763350_a_at) / Fold change /veh FAM212B (11763350_a_at) / RFU PLEKHG5 (11743358_a_at) / Fold change /veh PLEKHG5 (11743358_a_at) / RFU ZSCAN30 (11745921_a_at) / Fold change /veh ZSCAN30 (11745921_a_at) / RFU CMKLR1 (11741424_a_at) / Fold change /veh CMKLR1 (11741424_a_at) / RFU LOC101060620 /// MAPK8IP1 (11723275_at) / Fold change /veh LOC101060620 /// MAPK8IP1 (11723275_at) / RFU SPTSSB (11747773_x_at) / Fold change /veh SPTSSB (11747773_x_at) / RFU PRSS12 (11739890_at) / Fold change /veh PRSS12 (11739890_at) / RFU BIN1 (11741810_x_at) / Fold change /veh BIN1 (11741810_x_at) / RFU WNT11 (11732464_a_at) / Fold change /veh WNT11 (11732464_a_at) / RFU C10orf10 (11716521_a_at) / Fold change /veh C10orf10 (11716521_a_at) / RFU C5orf56 (11738089_at) / Fold change /veh C5orf56 (11738089_at) / RFU CYB561 (11721691_x_at) / Fold change /veh CYB561 (11721691_x_at) / RFU ANKRD19P (11752326_a_at) / Fold change /veh ANKRD19P (11752326_a_at) / RFU OR2T12 /// OR2T33 /// OR2T8 (11738714_s_at) / Fold change /veh OR2T12 /// OR2T33 /// OR2T8 (11738714_s_at) / RFU VCAN (11748164_a_at) / Fold change /veh VCAN (11748164_a_at) / RFU JSRP1 (11732532_at) / Fold change /veh JSRP1 (11732532_at) / RFU KRTAP10-11 (11738290_x_at) / Fold change /veh KRTAP10-11 (11738290_x_at) / RFU MYO3A (11730013_a_at) / Fold change /veh MYO3A (11730013_a_at) / RFU EBF3 (11725865_a_at) / Fold change /veh EBF3 (11725865_a_at) / RFU CAMK2N1 (11719241_x_at) / Fold change /veh CAMK2N1 (11719241_x_at) / RFU C5orf56 (11738088_a_at) / Fold change /veh C5orf56 (11738088_a_at) / RFU OLFML3 (11715873_a_at) / Fold change /veh OLFML3 (11715873_a_at) / RFU LOC100653217 /// NTM (11731650_a_at) / Fold change /veh LOC100653217 /// NTM (11731650_a_at) / RFU MAPK11 (11762145_a_at) / Fold change /veh MAPK11 (11762145_a_at) / RFU FIZ1 (11724087_x_at) / Fold change /veh FIZ1 (11724087_x_at) / RFU OASL (11726364_x_at) / Fold change /veh OASL (11726364_x_at) / RFU SOX15 (11748057_x_at) / Fold change /veh SOX15 (11748057_x_at) / RFU CD79A (11719716_a_at) / Fold change /veh CD79A (11719716_a_at) / RFU HIST1H1D (11736915_at) / Fold change /veh HIST1H1D (11736915_at) / RFU CASKIN2 (11723855_a_at) / Fold change /veh CASKIN2 (11723855_a_at) / RFU LOC730098 (11760151_x_at) / Fold change /veh LOC730098 (11760151_x_at) / RFU OR4N2 (11742367_at) / Fold change /veh OR4N2 (11742367_at) / RFU PRRT2 (11749266_a_at) / Fold change /veh PRRT2 (11749266_a_at) / RFU SNX32 (11753110_a_at) / Fold change /veh SNX32 (11753110_a_at) / RFU CDHR5 (11726645_a_at) / Fold change /veh CDHR5 (11726645_a_at) / RFU RCAN1 (11760418_a_at) / Fold change /veh RCAN1 (11760418_a_at) / RFU FAM167A (11723789_a_at) / Fold change /veh FAM167A (11723789_a_at) / RFU FAM26E (11764081_at) / Fold change /veh FAM26E (11764081_at) / RFU ISYNA1 (11749810_s_at) / Fold change /veh ISYNA1 (11749810_s_at) / RFU ACY1 (11761880_at) / Fold change /veh ACY1 (11761880_at) / RFU 11764098_at / Fold change /veh 11764098_at / RFU SAMD14 (11745864_x_at) / Fold change /veh SAMD14 (11745864_x_at) / RFU NPB (11741838_a_at) / Fold change /veh NPB (11741838_a_at) / RFU TMPRSS6 (11731388_a_at) / Fold change /veh TMPRSS6 (11731388_a_at) / RFU KRTAP10-2 (11738614_at) / Fold change /veh KRTAP10-2 (11738614_at) / RFU ARHGAP8 /// PRR5-ARHGAP8 (11727945_x_at) / Fold change /veh ARHGAP8 /// PRR5-ARHGAP8 (11727945_x_at) / RFU KRTAP5-7 /// NADSYN1 (11734609_at) / Fold change /veh KRTAP5-7 /// NADSYN1 (11734609_at) / RFU RASL12 (11751679_a_at) / Fold change /veh RASL12 (11751679_a_at) / RFU CDKN2B (11736163_a_at) / Fold change /veh CDKN2B (11736163_a_at) / RFU PRF1 (11729649_at) / Fold change /veh PRF1 (11729649_at) / RFU, ZNF638 /// ZNF638-IT1 / Fold change vs veh, ZNF638 /// ZNF638-IT1 / RFU, PANK3 / Fold change vs veh, PANK3 / RFU, SH3YL1 / Fold change vs veh, SH3YL1 / RFU, ZEB2 / Fold change vs veh, ZEB2 / RFU, NRIP1 / Fold change vs veh, NRIP1 / RFU, PTTG1IP / Fold change vs veh, PTTG1IP / RFU, CAPN2 / Fold change vs veh, CAPN2 / RFU, MED14 / Fold change vs veh, MED14 / RFU, SNORA58 / Fold change vs veh, SNORA58 / RFU, C1orf63 / Fold change vs veh, C1orf63 / RFU, LRRFIP1 / Fold change vs veh, LRRFIP1 / RFU, NDUFAF7 / Fold change vs veh, NDUFAF7 / RFU, SLC12A2 / Fold change vs veh, SLC12A2 / RFU, IBTK / Fold change vs veh, IBTK / RFU, ESF1 / Fold change vs veh, ESF1 / Fold change vs veh, TMEM50B / RFU, TAOK1 / Fold change vs veh, TAOK1 / RFU, ACBD3 / Fold change vs veh, ACBD3 / RFU, TMA16 / Fold change vs veh, TMA16 / RFU, RWDD3 / Fold change vs veh, RWDD3 / RFU, BCAT1 / Fold change vs veh, BCAT1 / RFU, EDEM3 / Fold change vs veh, EDEM3 / RFU, TMEM33 / Fold change vs veh, TMEM33 / RFU, WDR75 / Fold change vs veh, WDR75 / RFU, AHCTF1 / Fold change vs veh, AHCTF1 / RFU, TFRC / Fold change vs veh, TFRC / RFU, ZDHHC17 / Fold change vs veh, ZDHHC17 / RFU, NOM1 / Fold change vs veh, NOM1 / RFU, ARL8B / Fold change vs veh, ARL8B / RFU, ZBTB11 / Fold change vs veh, ZBTB11 / RFU, TAMM41 / Fold change vs veh, TAMM41 / RFU, KIAA1704 /// LOC100996395 / Fold change vs veh, KIAA1704 /// LOC100996395 / RFU, ING1 / Fold change vs veh, ING1 / RFU, TRMT61B / Fold change vs veh, TRMT61B / RFU, FUBP3 / Fold change vs veh, FUBP3 / RFU, TP53 / Fold change vs veh, TP53 / RFU, TNKS2 / Fold change vs veh, TNKS2 / RFU, ZFP14 / Fold change vs veh, ZFP14 / RFU, ACTR2 / Fold change vs veh, ACTR2 / RFU, PPP3R1 / Fold change vs veh, PPP3R1 / RFU, PIK3R1 / Fold change vs veh, PIK3R1 / RFU, HNRNPA1 / Fold change vs veh, HNRNPA1 / RFU, RNF170 / Fold change vs veh, RNF170 / RFU, ZNF28 / Fold change vs veh, ZNF28 / RFU, RNGTT / Fold change vs veh, RNGTT / RFU, OGT / Fold change vs veh, OGT / RFU, BRD1 / Fold change vs veh, BRD1 / RFU, MARS / Fold change vs veh, MARS / RFU, ZNF655 / Fold change vs veh, ZNF655 / RFU, FAHD1 / Fold change vs veh, FAHD1 / RFU, BDP1 / Fold change vs veh, BDP1 / RFU, LRRCC1 / Fold change vs veh, LRRCC1 / RFU, ARID1A / Fold change vs veh, ARID1A / RFU, ZNF146 / Fold change vs veh, ZNF146 / RFU, ZNF330 / Fold change vs veh, ZNF330 / RFU, GPN3 / Fold change vs veh, GPN3 / RFU, C9orf123 / Fold change vs veh, C9orf123 / RFU, N4BP2L2 / Fold change vs veh, N4BP2L2 / RFU, ARFIP1 / Fold change vs veh, ARFIP1 / RFU, FAM179B / Fold change vs veh, FAM179B / RFU, BCL10 / Fold change vs veh, BCL10 / RFU, UHRF1BP1L / Fold change vs veh, UHRF1BP1L / RFU, BET1 / Fold change vs veh, BET1 / RFU, CNOT2 / Fold change vs veh, CNOT2 / RFU, ZNF268 / Fold change vs veh, ZNF268 / Fold change vs veh, ZNF507 / RFU, DGCR2 / Fold change vs veh, DGCR2 / RFU, WDSUB1 / Fold change vs veh, WDSUB1 / Fold change vs veh, HSP90B1 /// MIR3652 / RFU, ADSS / Fold change vs veh, ADSS / RFU, GK / Fold change vs veh, GK / RFU, ZNF148 / Fold change vs veh, ZNF148 / RFU, TAF9 / Fold change vs veh, TAF9 / RFU, SLC1A5 / Fold change vs veh, SLC1A5 / RFU, SLMO2 / Fold change vs veh, SLMO2 / RFU, ABCC4 / Fold change vs veh, ABCC4 / RFU, LOC101060439 /// RAP1B / Fold change vs veh, LOC101060439 /// RAP1B / RFU, RFX7 / Fold change vs veh, RFX7 / RFU, GTPBP10 / Fold change vs veh, GTPBP10 / RFU, CNEP1R1 / Fold change vs veh, CNEP1R1 / RFU, BIVM-ERCC5 /// ERCC5 / Fold change vs veh, BIVM-ERCC5 /// ERCC5 / RFU, ILF3 / Fold change vs veh, ILF3 / RFU 11762660_at / Fold change /veh 11762660_at / RFU VCAN (11757783_s_at) / Fold change /veh VCAN (11757783_s_at) / RFU DDX43 (11728927_at) / Fold change /veh DDX43 (11728927_at) / RFU KRT8 (11758188_x_at) / Fold change /veh KRT8 (11758188_x_at) / RFU NKD1 (11759106_at) / Fold change /veh NKD1 (11759106_at) / RFU SRD5A1 (11742802_a_at) / Fold change /veh SRD5A1 (11742802_a_at) / RFU TPSAB1 /// TPSB2 (11721975_s_at) / Fold change /veh TPSAB1 /// TPSB2 (11721975_s_at) / RFU GSTM3 (11746129_a_at) / Fold change /veh GSTM3 (11746129_a_at) / RFU IL23R (11737362_x_at) / Fold change /veh IL23R (11737362_x_at) / RFU TMEM51 (11727254_a_at) / Fold change /veh TMEM51 (11727254_a_at) / RFU PIWIL2 (11732686_x_at) / Fold change /veh PIWIL2 (11732686_x_at) / RFU ORM1 (11744905_x_at) / Fold change /veh ORM1 (11744905_x_at) / RFU CCDC152 (11743942_at) / Fold change /veh CCDC152 (11743942_at) / RFU ECM1 (11717891_a_at) / Fold change /veh ECM1 (11717891_a_at) / RFU IL23R (11748794_a_at) / Fold change /veh IL23R (11748794_a_at) / RFU TNFAIP8L3 (11732012_x_at) / Fold change /veh TNFAIP8L3 (11732012_x_at) / RFU MBOAT4 (11741988_at) / Fold change /veh MBOAT4 (11741988_at) / RFU 11764193_at / Fold change /veh 11764193_at / RFU TMEM53 (11763286_at) / Fold change /veh TMEM53 (11763286_at) / RFU MAGEB2 (11727129_at) / Fold change /veh MAGEB2 (11727129_at) / RFU TMEM200A (11744735_a_at) / Fold change /veh TMEM200A (11744735_a_at) / RFU CCDC152 (11751479_a_at) / Fold change /veh CCDC152 (11751479_a_at) / RFU FAM211A (11726209_a_at) / Fold change /veh FAM211A (11726209_a_at) / RFU RGS16 (11746705_a_at) / Fold change /veh RGS16 (11746705_a_at) / RFU VCAN (11755009_s_at) / Fold change /veh VCAN (11755009_s_at) / RFU RHOB (11743442_s_at) / Fold change /veh RHOB (11743442_s_at) / RFU RGS16 (11720943_a_at) / Fold change /veh RGS16 (11720943_a_at) / RFU RGS16 (11720944_at) / Fold change /veh RGS16 (11720944_at) / RFU, VPS4B / Fold change vs veh, VPS4B / RFU, CREB1 / Fold change vs veh, CREB1 / RFU, DNAJC13 / Fold change vs veh, DNAJC13 / RFU, GNAQ / Fold change vs veh, GNAQ / RFU, CDK5R1 / Fold change vs veh, CDK5R1 / RFU, ZRANB3 / Fold change vs veh, ZRANB3 / RFU, CUL4A / Fold change vs veh, CUL4A / RFU, CCNY / Fold change vs veh, CCNY / RFU, UFL1 / Fold change vs veh, UFL1 / RFU, COG3 / Fold change vs veh, COG3 / RFU, DIAPH2 / Fold change vs veh, DIAPH2 / RFU, SKA2 / Fold change vs veh, SKA2 / RFU, AFF3 / Fold change vs veh, AFF3 / RFU, LMF1 / Fold change vs veh, LMF1 / RFU, IPO11 / Fold change vs veh, IPO11 / RFU, DFFB / Fold change vs veh, DFFB / RFU, FOXP1 / Fold change vs veh, FOXP1 / RFU, CARD8 / Fold change vs veh, CARD8 / RFU, STRN3 / Fold change vs veh, STRN3 / RFU, ADK / Fold change vs veh, ADK / RFU, RASSF2 / Fold change vs veh, RASSF2 / RFU, WIPF1 / Fold change vs veh, WIPF1 / RFU, LARP1B / Fold change vs veh, LARP1B / RFU, RASA1 / Fold change vs veh, RASA1 / RFU, RB1 / Fold change vs veh, RB1 / RFU, PPFIA1 / Fold change vs veh, PPFIA1 / RFU, MAT2A / Fold change vs veh, MAT2A / RFU, CCT5 / Fold change vs veh, CCT5 / RFU, WDR92 / Fold change vs veh, WDR92 / RFU, CUX1 / Fold change vs veh, CUX1 / RFU, TTC7A / Fold change vs veh, TTC7A / RFU, TMEM135 / Fold change vs veh, TMEM135 / RFU, DEPTOR / Fold change vs veh, DEPTOR / RFU, CPM / Fold change vs veh, CPM / RFU, DNAJB6 / Fold change vs veh, DNAJB6 / RFU, CACNA2D3 / Fold change vs veh, CACNA2D3 / RFU, DTX4 / Fold change vs veh, DTX4 / RFU, TFCP2 / Fold change vs veh, TFCP2 / RFU, GMCL1 /// GMCL1P1 / Fold change vs veh, GMCL1 /// GMCL1P1 / RFU, AEBP2 / Fold change vs veh, AEBP2 / RFU, SNHG1 /// SNORD22 /// SNORD25 /// SNORD26 /// SNORD27 /// SNORD28 /// SNORD29 /// SNORD31 / Fold change vs veh, SNHG1 /// SNORD22 /// SNORD25 /// SNORD26 /// SNORD27 /// SNORD28 /// SNORD29 /// SNORD31 / Fold change (Aza/veh), C12orf56 (ProbeSet 11735607_a_at) / Fold change (ACY-1035/veh), C12orf56 (ProbeSet 11735607_a_at) / Fold change (Aza/veh), FGFR1OP (ProbeSet 11751329_s_at) / Fold change (ACY-1035/veh), FGFR1OP (ProbeSet 11751329_s_at) / Fold change (Aza/veh), VPS36 (ProbeSet 11739960_a_at) / Fold change (ACY-1035/veh), VPS36 (ProbeSet 11739960_a_at) / RFU SYPL1 (11715823_x_at) / Fold change /veh SYPL1 (11715823_x_at) / RFU IGFBP7 (11715501_s_at) / Fold change /veh IGFBP7 (11715501_s_at) / RFU REEP3 (11722064_at) / Fold change /veh REEP3 (11722064_at) / RFU IGLL1 (11728026_x_at) / Fold change /veh IGLL1 (11728026_x_at): dose or concentration left out as unconfirmed", "details": "ProbeSet 11727641_at; LIST B", "data": [{"smiles": "Nc1ccc(-c2cccs2)cc1NC(=O)c1ccc2c(c1)cc(C1CC1)n2CCN1CCOCC1", "note": "[ACY-1035]", "values": [{"measurement": "Fold change vs veh, NOM1", "result": 0.95}]}]}
